29 molecules from patent US8557872B2, “Compounds, isomer thereof, or pharmaceutically acceptable salts thereof as vanilloid receptor antagonist; and pharmaceutical compositions containing the same” (Amorepacific Corporation, priority 2008, dated 2013) can be followed below.

Structures are written as SMILES. Like-named read-outs stand apart in the source and are kept apart here.

The target of the experiment is T1, vanilloid receptor (Rattus norvegicus, UniProt O35433).
T1 construct: DRG nerve cells from the primary culture of 2 days were equilibrated by washing 4 times; endogenous in cells; host or cells: primary culture of dorsal root ganglion neurons from neonatal SD rats
T1 sequence (O35433 whole entry): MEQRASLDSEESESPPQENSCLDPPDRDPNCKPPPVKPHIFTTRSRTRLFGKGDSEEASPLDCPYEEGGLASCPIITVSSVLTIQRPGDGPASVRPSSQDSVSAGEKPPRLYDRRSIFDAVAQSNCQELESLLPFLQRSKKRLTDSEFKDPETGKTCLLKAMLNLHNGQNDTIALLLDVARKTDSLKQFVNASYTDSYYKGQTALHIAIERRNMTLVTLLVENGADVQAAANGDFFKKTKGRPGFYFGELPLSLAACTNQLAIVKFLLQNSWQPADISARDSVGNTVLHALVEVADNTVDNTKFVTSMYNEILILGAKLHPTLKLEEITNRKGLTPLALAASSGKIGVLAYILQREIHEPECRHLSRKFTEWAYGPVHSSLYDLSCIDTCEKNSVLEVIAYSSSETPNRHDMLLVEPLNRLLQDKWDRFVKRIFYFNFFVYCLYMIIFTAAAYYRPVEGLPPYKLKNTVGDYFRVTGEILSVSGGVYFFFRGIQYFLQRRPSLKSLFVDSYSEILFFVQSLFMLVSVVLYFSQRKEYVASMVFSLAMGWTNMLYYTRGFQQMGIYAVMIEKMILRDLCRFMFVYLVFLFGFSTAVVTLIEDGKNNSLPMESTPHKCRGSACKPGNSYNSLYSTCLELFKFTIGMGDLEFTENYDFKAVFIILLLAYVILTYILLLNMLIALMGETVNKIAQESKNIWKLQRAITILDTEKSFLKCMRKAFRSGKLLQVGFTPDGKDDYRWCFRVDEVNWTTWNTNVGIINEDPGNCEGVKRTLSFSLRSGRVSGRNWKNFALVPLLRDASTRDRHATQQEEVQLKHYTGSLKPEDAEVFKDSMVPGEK
Put plainly: 45Ca influx test (calcium uptake) in primary cultured DRG neurons, capsaicin 0.5 μM. The format is cell-based. As to the method:
1) Separation of Spinal Dorsal Root Ganglia (DRG) in Newborn Rats and Primary Culture Thereof
Neonatal (2-3 day old or younger than 2-3 day old) SD rats were put in ice for 5 minutes to anesthetize and disinfected with 70% ethanol. […] The DRG were incubated sequentially at 37° C. for 30 mins in 200 U/ml collagenase and 2.5 mg/ml trypsin, separately. The ganglia were washed twice with DME/F12 medium supplemented with 10% horse serum, triturated through a fire-polished Pasteur pipette, filtered through Nitex 80 membrane to obtain single cell suspension and the suspension was washed once more. This was subjected to centrifugation, then resuspended in cell culture medium at certain level of cell density. As the cell culture medium, DME/F12 medium supplemented with 10% horse serum was diluted with identical medium conditioned by C6 glioma cells 2 days on a confluent monolayer (1:1), and NGF (Nerve Growth Factor) was added to adjust 200 ng/ml as final concentration. After the cells were grown 2 days in medium where cytosine arabinoside (Ara-C, 100 μM) was added to kill dividing nonneuronal cells, medium was changed to one without Ara-C. The resuspended cells were plated at a density of 1500-2000 neurons/well onto Terasaki plates previously coated with 10 μg/ml poly-D-ornithine.
2) ^45Ca Influx Experiments
DRG nerve cells from the primary culture of 2 days were equilibrated by washing 4 times with HEPES (10 mM, pH 7.4)-buffered Ca^2+, Mg^2+-free HBSS (H-HBSS). The solution in each well was removed from the individual well. Medium containing the test compound plus capsaicin (final concentration 0.5 μM) and ^45Ca (final concentration 10 μCi/ml) in H-HBSS was added to each well and incubated at room temperature for 10 mins. Terasaki plates were washed five times with H-HBSS and dried at room temperature. To each well, 0.3% SDS (10 μl) was added to elute ^45Ca. After the addition of scintillation cocktail of into each well, the amount of ^45Ca influx into neuron was measured by counting radioactivity.

The mark [1] stands for this setting: rat DRG neurons, capsaicin 0.5 μM, 45Ca, read-out: Antagonist Calcium Uptake Test (IC50).

As usually defined, the IC50 is the concentration at which inhibition is half-maximal. As for `CCOc1cc(C(F)(F)F)ccc1/C=C/C(=O)N[C@H](CC)c1cc(F)c(NS(C)(=O)=O)c(F)c1` (stereo in doubt) [Example 37, N-[1-(3,5-Difluoro-4-methanesulfonylamino-phenyl)-propyl]-3-(2-ethoxy-4-trifluoromethyl-phenyl)-acrylamide], the IC50 under setting [1] stood at 1700 nM.

With `CCCCOc1cc(C(F)(F)F)ccc1/C=C/C(=O)N[C@H](CC)c1cc(F)c(NS(C)(=O)=O)c(F)c1` (stereo in doubt) [Example 38, 3-(2-Butoxy-4-trifluoromethyl-phenyl)-N-[1-(3,5-difluoro-4-methanesulfonylamino-phenyl)-propyl]-acrylamide], the IC50 under setting [1] is 1100 nM. `CCCCNc1cc(C(F)(F)F)ccc1/C=C/C(=O)N[C@H](C)c1cc(F)c(NS(C)(=O)=O)c(F)c1` [Example 3, (R)-3-(2-Butylamino-4-trifluoromethyl-phenyl)-N-[1-(3,5-difluoro-4-methanesulfonylamino-phenyl)-ethyl]-acrylamide]: the IC50 under setting [1] was determined as 120 nM. Still for that read-out and setting: in the case of `CCCOc1cc(C(F)(F)F)ccc1/C=C/C(=O)NCc1cc(F)c(NS(C)(=O)=O)c(F)c1` [Example 4, N-(3,5-Difluoro-4-methanesulfonylamino-benzyl)-3-(2-propoxy-4-trifluoromethyl-phenyl)-acrylamide] it was 380 nM; in that of `CCCc1cc(C(F)(F)F)cc(CCC)c1/C=C/C(=O)N[C@H](C)c1cc(F)c(NS(C)(=O)=O)c(F)c1` [Example 6, (R)—N-[1-(3,5-Difluoro-4-methanesulfonylamino-phenyl)-ethyl]-3-(2,6-dipropyl-4-trifluoromethyl-phenyl)-acrylamide], 26 nM; in that of `CCOc1cc(C(F)(F)F)ccc1/C=C/C(=O)N[C@H](C)c1cc(F)c(NS(C)(=O)=O)c(F)c1` [Example 7, (R)—N-[1-(3,5-Difluoro-4-methanesulfonylamino-phenyl)-ethyl]-3-(2-ethoxy-4-trifluoromethyl-phenyl)-acrylamide], 110 nM. On the same count and under the same terms, as for `CCOc1cc(C(F)(F)F)ccc1/C=C/C(=O)NCc1cc(F)c(NS(C)(=O)=O)c(F)c1` [Example 8, N-(3,5-Difluoro-4-methanesulfonylamino-benzyl)-3-(2-ethoxy-4-trifluoromethyl-phenyl)-acrylamide], the figure is 850 nM; as for `CCOc1cc(C(F)(F)F)ccc1/C=C/C(=O)N[C@H](C)c1ccc(NS(C)(=O)=O)c(F)c1` [Example 9, (R)—N-[1-(3-Fluoro-4-methanesulfonylamino-phenyl)-ethyl]-3-(2-ethoxy-4-trifluoromethyl-phenyl)-acrylamide], 340 nM; as for `CCNc1cc(C(F)(F)F)ccc1/C=C/C(=O)N[C@H](C)c1cc(F)c(NS(C)(=O)=O)c(F)c1` [Example 10, (R)—N-[1-(3,5-Difluoro-4-methanesulfonylamino-phenyl)-ethyl]-3-(2-ethylamino-4-trifluoromethyl-phenyl)-acrylamide], 50 nM.

Consider `CCCNc1cc(C(F)(F)F)ccc1/C=C/C(=O)NCc1cc(C)c(NS(C)(=O)=O)c(F)c1` [Example 11, N-(3-Fluoro-4-methanesulfonylamino-5-methyl-benzyl)-3-(2-propylamino-4-trifluoromethyl-phenyl)-acrylamide], for which, under setting [1], the IC50 turned out to be 62 nM. On to `C=Cc1cc(CNC(=O)/C=C/c2ccc(C(F)(F)F)cc2NCCC)cc(F)c1NS(C)(=O)=O` [Example 12, N-(3-Fluoro-4-methanesulfonylamino-5-vinyl-benzyl)-3-(2-propylamino-4-trifluoromethyl-phenyl)-acrylamide], for which, for the setting “comparison with comparative compounds F and G, read-out: IC50 value”, the IC50 came to 150 nM. Consider `CCCNc1cc(C(F)(F)F)ccc1/C=C/C(=O)NCc1cc(F)c(NS(C)(=O)=O)c(C#N)c1` [Example 13, N-(3-Cyano-5-fluoro-4-methanesulfonylamino-benzyl)-3-(2-propylamino-4-trifluoromethyl-phenyl)-acrylamide], for which the IC50 under setting [1] turned out to be 120 nM.

On to `C#Cc1cc(CNC(=O)/C=C/c2ccc(C(F)(F)F)cc2OCCC)cc(F)c1NS(C)(=O)=O` [Example 14, N-(3-Ethynyl-5-fluoro-4-methanesulfonylamino-benzyl)-3-(2-propoxy-4-trifluoromethyl-phenyl)-acrylamide], for which, under setting [1], the IC50 was 240 nM.

Take `CCOc1cc(C(F)(F)F)ccc1/C=C/C(=O)NCc1cc(F)c(NS(C)(=O)=O)c(C(F)(F)F)c1` [Example 15, 3-(2-Ethoxy-4-trifluoromethyl-phenyl)-N-(3-fluoro-4-methanesulfonylamino-5-trifluoromethyl-benzyl)-acrylamide]: under setting [1], the IC50 came to 2400 nM. Consider `CCCCc1cc(C(F)(F)F)cc(CCCC)c1/C=C/C(=O)N[C@H](C)c1cc(F)c(NS(C)(=O)=O)c(F)c1` [Example 16, (R)-3-(2,6-Dibutyl-4-trifluoromethyl-phenyl)-N-[1-(3,5-difluoro-4-methanesulfonylamino-phenyl)-ethyl]-acrylamide], for which the IC50 under setting [1] came out at 220 nM.

With `CCc1cc(C(F)(F)F)cc(CC)c1/C=C/C(=O)N[C@H](C)c1cc(F)c(NS(C)(=O)=O)c(F)c1` [Example 17], the IC50 under setting [1] was determined as 140 nM. Same read-out and setting: in the case of `CCNc1cc(C(F)(F)F)ccc1/C=C/C(=O)NCc1cc(F)c(NS(C)(=O)=O)c(F)c1` [Example 18, N-(3,5-Difluoro-4-methanesulfonylamino-benzyl)-3-(2-ethylamino-4-trifluoromethyl-phenyl)-acrylamide] it was 83 nM; in that of `CCNc1cc(C(F)(F)F)ccc1/C=C/C(=O)NCc1cc(C)c(NS(C)(=O)=O)c(F)c1` [Example 19, 3-(2-Ethylamino-4-trifluoromethyl-phenyl)-N-(3-fluoro-4-methanesulfonylamino-5-methyl-benzyl)-acrylamide], 160 nM. Still for that read-out and setting: as for `CC(C)Oc1cc(C(F)(F)F)ccc1/C=C/C(=O)NCc1cc(F)c(NS(C)(=O)=O)c(F)c1` [Example 20, N-(3,5-Difluoro-4-methanesulfonylamino-benzyl)-3-(2-isopropoxy-4-trifluoromethyl-phenyl)-acrylamide], the figure is 150 nM; as for `CCCc1cc(C(F)(F)F)ccc1/C=C/C(=O)NCc1cc(C)c(NS(C)(=O)=O)c(F)c1` [Example 23, N-(3-Fluoro-4-methanesulfonylamino-5-methyl-benzyl)-3-(2-propyl-4-trifluoromethyl-phenyl)-acrylamide], 270 nM. With `CCCc1cc(C(F)(F)F)ccc1/C=C/C(=O)N[C@H](CC)c1cc(F)c(NS(C)(=O)=O)c(F)c1` [Example 25, (R)—N-[1-(3,5-Difluoro-4-methanesulfonylamino-phenyl)-propyl]-3-(2-propyl-4-trifluoromethyl-phenyl)-acrylamide], the IC50 under setting [1] is 170 nM.

As for `CC(C)Oc1cc(C(F)(F)F)ccc1/C=C/C(=O)N[C@H](C)c1cc(F)c(NS(C)(=O)=O)c(F)c1` [Example 26, (R)—N-[1-(3,5-Difluoro-4-methanesulfonylamino-phenyl)-ethyl]-3-(2-isopropoxy-4-trifluoromethyl-phenyl)-acrylamide], under setting [1], the IC50 is 47 nM. Regarding `CCCOc1cc(F)ccc1/C=C/C(=O)N[C@H](C)c1cc(F)c(NS(C)(=O)=O)c(F)c1` [Example 27, (R)—N-[1-(3,5-Difluoro-4-methanesulfonylamino-phenyl)-ethyl]-3-(4-fluoro-2-propoxy-phenyl)-acrylamide], the 50% inhibitory concentration (IC50) under setting [1] stood at 170 nM. Still for that read-out and setting: in the case of `CCCOc1cc(F)ccc1/C=C/C(=O)NCc1cc(F)c(NS(C)(=O)=O)c(F)c1` [Example 28, N-(3,5-Difluoro-4-methanesulfonylamino-benzyl)-3-(4-fluoro-2-propoxy-phenyl)-acrylamide] it was 1100 nM.

For `CCCNc1cc(F)ccc1/C=C/C(=O)N[C@H](C)c1cc(F)c(NS(C)(=O)=O)c(F)c1` [Example 29, (R)—N-[1-(3,5-Difluoro-4-methanesulfonylamino-phenyl)ethyl]-3-(4-fluoro-2-propylaminophenyl)-acrylamide], the IC50 under setting [1] turned out to be 160 nM. On to `CCCNc1cc(F)ccc1/C=C/C(=O)NCc1cc(F)c(NS(C)(=O)=O)c(F)c1` [Example 30], for which the IC50 under setting [1] is 410 nM. Take `CCCCOc1cc(C(F)(F)F)ccc1/C=C/C(=O)N[C@H](C)c1cc(F)c(NS(C)(=O)=O)c(F)c1` [Example 31, (R)-3-(2-Butoxy-4-trifluoromethyl-phenyl)-N-[1-(3,5-difluoro-4-methanesulfonylamino-phenyl)-ethyl]-acrylamide]: the IC50 under setting [1] is 110 nM. As to `CCCCOc1cc(C(F)(F)F)ccc1/C=C/C(=O)NCc1cc(F)c(NS(C)(=O)=O)c(F)c1` [Example 32, 3-(2-Butoxy-4-trifluoromethyl-phenyl)-N-(3,5-difluoro-4-methanesulfonylamino-benzyl)-acrylamide], the IC50 under setting [1] is 2200 nM.

In the case of `CCCCOc1cc(F)ccc1/C=C/C(=O)N[C@H](C)c1cc(F)c(NS(C)(=O)=O)c(F)c1` [Example 33, (R)-3-(2-Butoxy-4-fluoro-phenyl)-N-[1-(3,5-difluoro-4-methanesulfonylamino-phenyl)-ethyl]-acrylamide], the IC50 under setting [1] worked out at 150 nM.
